The values that follow come from publication PMC6832134, “Discovery of Novel Integrase Inhibitors Acting outside the Active Site Through High-Throughput Screening” (Molecules, 2019).

The structures appear in SMILES notation.

One assay deals with HIV-1. On the set-up: method as in http://dtp.nci.nih.gov, [7]. As to conditions: ref http://dtp.nci.nih.gov, [7]; cited from earlier work.
In the next assay the target is T1, full-length IN (Human immunodeficiency virus type 1 group M subtype B, UniProt P12497).
T1 construct: using full-length IN (1–288), the isolated catalytic core domain (CCD) (51–212); made in house; host or cells: E. coli RosettaII
Description: Disintegration reaction, full-length IN. It counts as biochemical, HIV-1. As to conditions: branched substrate. The source says: Conventional IN strand transfer inhibitors bind at the interface created by the protein, viral DNA, and two magnesium cations in the catalytic site of the enzyme. Because stilbene disulfonic acid derivatives inhibit both 3′-P and ST with a similar efficiency, they may act outside the IN catalytic site. To determine if IN domains other than the catalytic core domain (CCD) are involved in the inhibitory activity of NSC34931, we tested this compound on disintegration, the only IN-mediated reaction that can be catalyzed by the isolated CCD. Disintegration is equivalent to a reverse-ST reaction (Figure 3A). Using a branched substrate, the WT enzyme as well as the isolated CCD catalyzed disintegration with similar efficiency (Figure 3B). NSC34931 inhibited disintegration catalyzed by the full-length IN at concentrations above 4.1 µM (Figure 3B,C). However, NSC34931 was unable to inhibit disintegration catalyzed by the CCD at concentrations up to 37 µM (Figure 3B,C). These experiments indicate that the N-terminal domain (NTD) and/or the C-terminal domain (CTD) are essential for IN inhibition by NSC34931.
Figure 3 Inhibition of the disintegration reaction by NSC34931. (A) Schematic representation of the disintegration reaction. […]

The next assay deals with T2, full-length IN (1–288) (Human immunodeficiency virus type 1 group M subtype B, UniProt P12497).
T2 construct: using full-length IN (1–288), the isolated catalytic core domain (CCD) (51–212); made in house; host or cells: E. coli RosettaII
The assay can be described thus: Schiff base IN-DNA crosslinking assay, full-length IN. Type of assay: binding, HIV-1. The source says: To gain further evidence that NSC34931 interferes with DNA binding, and to determine the role of outer domains in this inhibition, we evaluated the ability of NSC34931 to inhibit the formation of IN-DNA crosslinks using our previously described Schiff base assay. Briefly, a deoxyuracyl nucleotide is incorporated in the DNA substrate to generate an abasic site via uracyl DNA glycosylase. IN forms a covalent complex (Schiff base), which can be stabilized by reduction with sodium borohydride (Figure 5A). Full-length IN, but also the isolated CCD or CTD domains, can crosslink DNA ([…]). Consistent with anisotropy data, NSC34931 suppresses the formation of IN-DNA crosslinks in the context of the full-length IN (Figure 5B, upper gel). Of note, the effective dose to inhibit this reaction is similar to that needed to inhibit 3′-P or ST (about 0.45 µM). In contrast, the IN CCD requires a 10 times higher concentration of compound to prevent DNA crosslinking, confirming that the NTD or the CTD are important for NSC34931 inhibition. Lastly, the same experiment was conducted with the isolated CTD (Figure 5B, lower gel).
Figure 5 Inhibition of IN-DNA binding by NSC34931. (A) Principle of the Schiff base crosslinking assay. An abasic site was introduced by uracil DNA glycosylase in the DNA substrate at the -12 position. […]

The target in the next assay is T3, HIV-1 IN (Human immunodeficiency virus type 1 group M subtype B, UniProt P12497).
T3 construct: 250 nM of recombinant HIV-1 integrase; made in house; host or cells: E. coli RosettaII
The assay can be described thus: Gel-based IN 3'-processing assay. Type of assay: biochemical. As to conditions: at least three independent experiments, read-out: In Vitro IC50 +/−SD, 3'-P. As to the method:
(§1) IN reactions were carried out by adding drugs or an equivalent volume of 100% DMSO (dimethyl sulfoxide, used as the drug solvent) to a mixture of 20 nM duplex DNA (21T/21B) and 400 nM IN in 50 mM MOPS pH 7.2, 7.5 mM MgCl2, and 14 mM 2-mercaptoethanol. Reactions were performed at 37 °C for 2 h and quenched by addition of an equal volume of loading buffer [formamide containing 1% SDS (sodium dodecyl sulfate), 0.25% bromophenol blue, and xylene cyanol]. Reaction products were separated in 16% polyacrylamide denaturing sequencing gels. Dried gels were visualized using a Typhoon 8600 (GE Healthcare, Piscataway, NJ, USA). Densitometric analyses were performed using the ImageQuant 5.1 software from GE Healthcare. Data analyses (linear regression, IC50 determination, and standard deviation) were performed using Prism 6.05 software from GraphPad.

In assay [1] the target is T4, HIV-1 IN mutant G140S/Q148H (Human immunodeficiency virus type 1 group M subtype B, UniProt P12497, G1287S/Q1295H).
T4 construct: RAL-resistant HIV-1 mutant integrases; made in house; host or cells: E. coli RosettaII
The assay can be described thus: Gel-based IN strand transfer assay, G140S/Q148H mutant. It counts as biochemical. As to the method:
as §1

Assay [2] deals with VSV pseudo-typed HIV-1 virus particles. The assay can be described thus: organism not typed. Type of assay: cell-based.
For the next assay, the target named is T5, HIV-1 IN mutant Y143R (Human immunodeficiency virus type 1 group M subtype B, UniProt P12497, Y1290R).
T5 construct: RAL-resistant HIV-1 mutant integrases; made in house; host or cells: E. coli RosettaII
Description: Gel-based IN strand transfer assay, Y143R mutant. Type of assay: biochemical. On the procedure:
as §1

Usually EC50 stands for the concentration needed to bring the measured effect to its halfway point. Regarding `O=S(=O)(O)c1cc(/N=N/c2cc(S(=O)(=O)O)c3ccccc3c2O)ccc1/C=C/c1ccc(/N=N/c2cc(S(=O)(=O)O)c3ccccc3c2O)cc1S(=O)(=O)O` [NSC34931], the “antiviral activity in HIV-1 cytopathic assay” value in the assay on HIV-1 is on record as “antiviral”. The concentrations inhibiting disintegration result on full-length IN is on record as “above 4.1 µM”. The “effective dose to inhibit IN-DNA crosslink formation” value on full-length IN (1–288) is recorded as “about 0.45 µM”. Moreover, the IC50 on HIV-1 IN is 320 ± 120 nM; in assay [1], 120 nM; against HIV-1 IN mutant Y143R it was 240 nM. Moreover, in assay [2], the “Selectivity Index SI” value is given as 19.2. Moreover, in assay [2] (read-out: Ex Vivo Antiviral Activity EC50), the EC50 was 3070 nM.
